SMILES strings stand for the structures.

Assay [1] in a line: Antiproliferative activity against human AML cell. It is filed as functional, cell-based. As to conditions: Acute myeloid leukemic cell.
The nature of assay [2]: Antiproliferative activity against human SCLC cell. It counts as functional, cell-based. As to conditions: Small cell lung cancer cell line.
For assay [3], the target named is T1, Lysine-specific histone demethylase 1A (Homo sapiens, UniProt O60341). As to the kind of experiment: Inhibition of recombinant LSD1 (unknown origin) incubated for 1 hr.
The target in assay [4] is T1, Lysine-specific histone demethylase 1A.
Description: Inhibition of LSD1 (unknown origin)

For orientation: IC50 means the point on the concentration scale where inhibition reaches its midpoint. `O=C(O)c1ccc(CN2CCC(CN[C@@H]3C[C@H]3c3ccccc3)CC2)cc1` [GSK2879552]: the half-inhibitory concentration (IC50) in assay [1] and in assay [2] was 24 nM in each case.

Take `Oc1ccc(/C=C/c2cc(O)cc(O)c2)cc1` [RESVERATROL]: the concentration for half-maximal inhibition (IC50) in assay [3] amounted to 15 µM.

The molecule `C/C(=N\NC(=O)c1cccc(S(=O)(=O)N2CCN(C)CC2)c1)c1cc(Cl)ccc1O` came in with an IC50 in assay [4] of 13 nM.
